In patent EP0321364A2, “Orally administrable cephalosporin derivatives, and the production and uses thereof” (ZAIDAN HOJIN BISEIBUTSU KAGAKU KENKYU KAI, priority 1987, dated 1989) one finds MIC and dose excreted data, which are given here for three compounds.

Each structure is given as a SMILES string. Values after ≈ are worked out from the molar mass of the structure shown. Read-outs that look alike come from different tables or passages of the source.

For data set [1], the system named is Micrococcus luteus ATCC9341. The data set can be described thus: MIC, serial dilution method in Müller-Hinton agar. Conditions: 37°C, 18 hours. It is filed as cell-based. How it is done: (§1) The antibacterial activities of the cephalosporin compounds of the formula (I) according to this invention, specifically the final product compounds of the Examples 1 to 6 given hereinafter, were assayed in term of their minimum inhibitory concentrations (MIC; mcg/ml) against various test bacteria, as determined according to a standard serial dilution method in Müller-Hinton agar medium (a product of Difico company), where the incubation was made at 37°C for 18 hours. For the comparison purpose, the antibacterial spectrum of a known compound, Cefalexin (abbreviated as CEX) was also assayed in the same way as above.

For data set [2], the system named is Salmonella schottmulleri 8006. The experiment in a line: MIC, serial dilution method in Müller-Hinton agar. It is filed as cell-based. To be noted: 37°C, 18 hours. How it is done: as §1
For data set [3], the system named is Pseudomonas aeruginosa IFO3445. The experiment in a line: MIC, serial dilution method in Müller-Hinton agar. It is filed as cell-based. To be noted: 37°C, 18 hours. How it is done:
as §1

In data set [4] the test system is Salmonella enteritidis G14. The data set can be described thus: MIC, serial dilution method in Müller-Hinton agar. It is filed as cell-based. To be noted: Salmonella enterica. The protocol: as §1
For data set [5], the system named is Bacillus subtilis ATCC6633. The data set can be described thus: MIC, serial dilution method in Müller-Hinton agar. It is filed as cell-based. To be noted: 37°C, 18 hours. How it is done:
as §1

Data set [6] deals with Klebsiella oxytosa GN10560. The experiment in a line: MIC, serial dilution method in Müller-Hinton agar. It is filed as cell-based. To be noted: Klebsiella oxytosa GN10560, cefuroximase producing strain, 37°C, 18 hours. How it is done:
as §1

Data set [7] relates to Staphylococcus aureus MS353. The experiment in a line: MIC, serial dilution method in Müller-Hinton agar. It is filed as cell-based. The protocol: as §1
In data set [8] the test system is Rms823/Escherichia coli K-12 W3630. The experiment in a line: MIC, serial dilution method in Müller-Hinton agar. It is filed as cell-based. Conditions: 18 h. How it is done:
as §1

The next data set deals with Proteus morganii IFO3848. The data set can be described thus: MIC, serial dilution method in Müller-Hinton agar. It is filed as cell-based. To be noted: Morganella morganii. The protocol: as §1
Data set [9] relates to Salmonella typhimurium IID971. The data set can be described thus: MIC, serial dilution method in Müller-Hinton agar. Conditions: Salmonella enterica. Type of data set: cell-based. How it is done: as §1
Data set [10] concerns Salmonella paratyphi 1015. The data set can be described thus: MIC, serial dilution method in Müller-Hinton agar. Type of data set: cell-based. Conditions: Salmonella enterica, 37°C, 18 hours. How it is done:
as §1

The subject of data set [11] is Staphylococcus aureus Terajima. The experiment in a line: MIC, serial dilution method in Müller-Hinton agar. It is filed as cell-based. Conditions: 37°C, 18 hours. How it is done:
as §1

The subject of data set [12] is Rms139/MI Pseudomonas aeruginosa. The data set can be described thus: MIC, serial dilution method in Müller-Hinton agar. Type of data set: cell-based. To be noted: 18 h. How it is done: as §1
The subject of the next data set is Salmonella typhi 901. The data set can be described thus: MIC, serial dilution method in Müller-Hinton agar. It is filed as cell-based. To be noted: Salmonella enterica, 18 h. How it is done: as §1
Data set [13] deals with Rms213/Escherichia coli K-12 W3630. The experiment in a line: MIC, serial dilution method in Müller-Hinton agar. Type of data set: cell-based. Conditions: 18 h. The protocol: as §1
For data set [14], the system named is Escherichia coli NIHJ-JS-2. The experiment in a line: MIC, serial dilution method in Müller-Hinton agar. Type of data set: cell-based. To be noted: NIHJJS2; Escherichia coli NIHJ-JS-2; Müller-Hinton agar, 37°C, 18 hours; read-out: MIC. How it is done: as §1
The test system of data set [15] is Klebsiella pneumoniae PCI602. The experiment in a line: MIC, serial dilution method in Müller-Hinton agar. Type of data set: cell-based. How it is done:
as §1

In a further data set the test system is Proteus vulgaris OX-19. The data set can be described thus: MIC, serial dilution method in Müller-Hinton agar. It is filed as cell-based. To be noted: OX19, 37°C, 18 hours. The protocol: as §1
Data set [16] relates to Staphylococcus aureus FDA209P JC-1. The experiment in a line: MIC, serial dilution method in Müller-Hinton agar. Type of data set: cell-based. How it is done: as §1
Another data set relates to Proteus rettgeri IFO3850. The experiment in a line: MIC, serial dilution method in Müller-Hinton agar. Type of data set: cell-based. To be noted: Providencia rettgeri. The protocol: as §1
The subject of data set [17] is Rms212/Escherichia coli K-12 W3630. The experiment in a line: MIC, serial dilution method in Müller-Hinton agar. Type of data set: cell-based. Conditions: 18 h. The protocol:
as §1

Data set [18] relates to Escherichia coli K-12 C600. The experiment in a line: MIC, serial dilution method in Müller-Hinton agar. It is filed as cell-based. To be noted: K12C600; Escherichia coli K-12 C600; Müller-Hinton agar, 37°C, 18 hours; read-out: MIC. The protocol: as §1
Data set [19] deals with Rte16/Escherichia coli K-12 W3630. The data set can be described thus: MIC, serial dilution method in Müller-Hinton agar. It is filed as cell-based. Conditions: 18 h. How it is done:
as §1

Data set [20] is described as follows: Test 1: urinary recovery after oral administration. It is filed as in vivo. Conditions: mice (ICR-strain, female), 300 mcg per mouse, urine collected until 5 hours after administration, microbial assay, molar percentage. The protocol: To mice (ICR-strain, female, 4 weeks-aged) was orally administered a new cephalosporin compound according to this invention at a dosage of 300 mcg per mouse. Until the end of 5 hours after oral administration of the test cephalosporin compound, all the volumes of urine discharged by the treated mice were collected together, and the total amount of the test compound remaining in the collected urine was measured by a microbial assay method. The urinary recovery of the test compound was calculated in terms of percentage of the molar quantity of the test compound as recovered, against the molar quantity of the test compound as orally given.

Where [21] appears, read: Staphylococcus aureus MS353, Müller-Hinton agar, 37°C, 18 hours, read-out: MIC.
[22] abbreviates: Proteus morganii IFO3848, Müller-Hinton agar, 37°C, 18 hours, read-out: MIC.
The mark [23] stands for this setting: Proteus rettgeri IFO3850, Müller-Hinton agar, 37°C, 18 hours, read-out: MIC.
Setting [24] is: Salmonella enteritidis G14, Müller-Hinton agar, 37°C, 18 hours, read-out: MIC.
The mark [25] stands for this setting: Klebsiella pneumoniae PCI602, Müller-Hinton agar, 37°C, 18 hours, read-out: MIC.
Where [26] appears, read: Staphylococcus aureus, FDA209P, 18 h.

As for `C=CC1=C(C(=O)O)N2C(=O)C(NC(=O)[C@H](N)c3ccc(CO)c(O)c3)[C@H]2SC1` (stereo partly drawn) [Example 3 Compound, 7-{(R)-2-amino-2-(3-hydroxy-4-hydroxymethylphenyl)acetamido}-3-vinyl-3-cephem-4-carboxylic acid], the minimum inhibitory concentration (MIC) in data set [1] is 0.2 µg/mL (≈ 0.493 µM); in [2], 3.13 µg/mL (≈ 7.72 µM); in [3], greater than 100 µg/mL; in [4] (ENTERITIDIS, 18 h), 3.13 µg/mL (≈ 7.72 µM); in data set [5], 0.05 µg/mL (≈ 0.123 µM); in [6], greater than 100 µg/mL. Moreover, the minimal inhibitory concentration (MIC) in data set [7] (setting [21]) was 1.56 µg/mL (≈ 3.85 µM); in data set [8], greater than 100 µg/mL; in the data set with Proteus morganii IFO3848 (setting [22]), 50 µg/mL (≈ 123 µM); in [9] (18 h), 3.13 µg/mL (≈ 7.72 µM); in data set [10] it was 3.13 µg/mL (≈ 7.72 µM); in data set [11], 0.2 µg/mL (≈ 0.493 µM). Moreover, the minimal inhibitory concentration (MIC) was greater than 100 µg/mL in data set [12]; 3.13 µg/mL (≈ 7.72 µM) in the data set with Salmonella typhi 901; 12.5 µg/mL (≈ 30.8 µM) in data set [13]; 6.25 µg/mL (≈ 15.4 µM) in data set [14]; 3.13 µg/mL (≈ 7.72 µM) in data set [15] (Klebsiella pneumoniae, PCI602, 18 h); 25 µg/mL (≈ 61.7 µM) in the data set on Proteus vulgaris OX-19. The MIC in data set [16] (Staphylococcus aureus FDA209P JC-1, Müller-Hinton agar, 37°C, 18 hours, read-out: MIC) turned out to be 1.56 µg/mL (≈ 3.85 µM); with Proteus rettgeri IFO3850 (setting [23]), 50 µg/mL (≈ 123 µM); in [17], 12.5 µg/mL (≈ 30.8 µM); in data set [18] it was 6.25 µg/mL (≈ 15.4 µM); in [19], 12.5 µg/mL (≈ 30.8 µM). The dose excreted in data set [20] came out at 65%.

On to `C/C=C\C1=C(C(=O)O)N2C(=O)C(NC(=O)[C@H](N)c3ccc(CO)c(O)c3)[C@H]2SC1` (stereo partly drawn) [Example 4 Compound, 7-{(R)-2-amino-2-(3-hydroxy-4-hydroxymethylphenyl)acetamido)-3-{(Z)-1-propenyl)-3-cephem-4-carboxylic acid], for which the MIC in [1] was 0.1 µg/mL (≈ 0.238 µM); in data set [2] it was 1.56 µg/mL (≈ 3.72 µM); in [3], greater than 100 µg/mL; in data set [4] (setting [24]) it was 0.78 µg/mL (≈ 1.86 µM); in [5], 0.2 µg/mL (≈ 0.477 µM); in data set [6] it was greater than 100 µg/mL. In addition, the MIC in data set [7] (Staphylococcus aureus, MS353, 18 h) was found to be 1.56 µg/mL (≈ 3.72 µM); in data set [8] it was 100 µg/mL (≈ 238 µM); in the data set on Proteus morganii IFO3848 (IFO3848, 18 h) it was 1.56 µg/mL (≈ 3.72 µM); in data set [9] (18 h) it was 1.56 µg/mL (≈ 3.72 µM); in [10] it was 1.56 µg/mL (≈ 3.72 µM); in data set [11], 0.1 µg/mL (≈ 0.238 µM). For the same compound, the MIC in data set [12] was greater than 100 µg/mL; with Salmonella typhi 901, 0.78 µg/mL (≈ 1.86 µM); in [13], 6.25 µg/mL (≈ 14.9 µM); in data set [14], 6.25 µg/mL (≈ 14.9 µM); in data set [15] (setting [25]), 0.78 µg/mL (≈ 1.86 µM); in the data set on Proteus vulgaris OX-19, 25 µg/mL (≈ 59.6 µM). Besides, the minimal inhibitory concentration (MIC) was found to be 1.56 µg/mL (≈ 3.72 µM) in data set [16] (setting [26]); 1.56 µg/mL (≈ 3.72 µM) in the data set on Proteus rettgeri IFO3850 (IFO3850, 18 h); 12.5 µg/mL (≈ 29.8 µM) in [17]; 3.13 µg/mL (≈ 7.46 µM) in data set [18]; 12.5 µg/mL (≈ 29.8 µM) in data set [19]. Besides, in [20], the dose excreted worked out at 58.8%.

As for `C/C=C\C1=C(C(=O)O)N2C(=O)C(NC(=O)[C@H](N)c3ccc(CO)c(OC)c3)[C@H]2SC1` (stereo partly drawn) [Example 5 Compound, 7-{(R)-2-amino-2-(4-hydroxymethyl-3-methoxyphenyl)acetamido}-3-{(Z)-1-propenyl}-3-cephem-4-carboxylic acid], the minimal inhibitory concentration (MIC) in [1] is 0.025 µg/mL (≈ 0.0577 µM); in data set [2] it was 0.39 µg/mL (≈ 0.9 µM); in data set [3], greater than 100 µg/mL; in data set [4] (setting [24]), 0.78 µg/mL (≈ 1.8 µM); in data set [5] it was 0.05 µg/mL (≈ 0.115 µM); in data set [6], greater than 100 µg/mL. Besides, the MIC in [7] (setting [21]) is 0.78 µg/mL (≈ 1.8 µM); in data set [8], greater than 100 µg/mL; in the data set with Proteus morganii IFO3848 (setting [22]), 3.13 µg/mL (≈ 7.22 µM); in [9] (Salmonella typhimurium IID971, Müller-Hinton agar, 37°C, 18 hours, read-out: MIC), 3.13 µg/mL (≈ 7.22 µM); in data set [10], 0.78 µg/mL (≈ 1.8 µM); in data set [11] it was 0.1 µg/mL (≈ 0.231 µM). Also, the minimum inhibitory concentration (MIC) in data set [12] was determined as 100 µg/mL (≈ 231 µM); with Salmonella typhi 901, 1.56 µg/mL (≈ 3.6 µM); in data set [13] it was 25 µg/mL (≈ 57.7 µM); in data set [14] it was 6.25 µg/mL (≈ 14.4 µM); in data set [15] (setting [25]) it was 0.78 µg/mL (≈ 1.8 µM); against Proteus vulgaris OX-19, 50 µg/mL (≈ 115 µM). Besides, the MIC in [16] (setting [26]) worked out at 1.56 µg/mL (≈ 3.6 µM); in the data set on Proteus rettgeri IFO3850 (setting [23]), 3.13 µg/mL (≈ 7.22 µM); in data set [17], 12.5 µg/mL (≈ 28.8 µM); in data set [18] it was 3.13 µg/mL (≈ 7.22 µM); in [19] it was 3.13 µg/mL (≈ 7.22 µM). The dose excreted in data set [20] was found to be 47.9%.
